Tested on: Propionibacterium acnes (ATCC #6919)
Test: In vitro reduction of P. acnes population (plate counts after timed exposure)
Format: cell-based
Experimental: In vitro experiments show the effectiveness of a composition comprising salicylic acid and anti-P. acnes immunoglobulin at reducing a specific microorganism population.
The microorganism of interest in the described experiments was Propionibacterium acnes. A stock suspension of P. acnes was prepared by inoculating a sample of P. acnes (ATCC #6919) in Reinforced Clostria broth at 36±1° C. for 5 days anaerobically. This stock suspension was divided into four equal batches. The first batch served as a no treatment control group. The second batch was treated with 2% salicylic acid. The third batch was treated with 3 ppm anti-P. acnes IgY at 95% purity. The fourth batch was treated with 2% salicylic acid and 3 ppm anti-P. acnes IgY at 95% purity. At time intervals 30 seconds, 1 minute, 5 minutes, 12 hours, and 24 hours, 1.0 ml from the inoculated control and test batches was taken and placed into 9.0 ml of neutralizing broth (1:10 dilution). Additional dilutions were made using neutralizing broth to achieve 1:100, 1:1000 and 1:10,000 dilutions. One milliliter from each dilution was plated into TSA+5% sheep blood. The plates were incubated at 36±1° C. for 5 days anaerobically. After the incubation period, all plates were counted to determine the number of microorganism at each time point.

## O=C(O)c1ccccc1O [2% SA, salicylic acid (o-hydroxybenzoic acid)]
Exposure Time 30 sec.
  number of microorganism: 7.20E+05
Exposure Time 12 hours
  number of microorganism: <10
Exposure Time 24 hours
  number of microorganism: <10
Exposure Time Initial, P. acnes stock suspension
  number of microorganism: 8.20E+05
Used alone
  time after which a 99% kill rate was reached: 12 h
Within the first 30 seconds
  reduction of the concentration of P. acnes: about 12%
